System: Fli:EGFP zebrafish larvae
Test: High fat diet zebrafish larvae model with fluorescent cholesterol ester, ezetimibe added to the tank water, confocal imaging
Format: in vivo, zebrafish (Danio rerio)
Conditions: 10 days on high fat diet with fluorescent (red) cholesterol ester
Experimental: Spray cholesterol (4% in ether) on the fish food, let it dry for 2 hours in a fume hood. Collect and keep at 4° C. Feed the fish with high-cholesterol food for 7 days to 8 weeks.
To visualize the lipid in larvae zebrafish, add to the cholesterol ether solution 10 μg/ml of cholesteryl BODIPY 576/589 C11 (Invitrogen, C12681). […] Feed fli:EGFP zebrafish with this high-cholesterol diet for one week.
Use a fluorescent confocal microscope to image dorsal aorta of a fli:EGFP zebrafish (wild type or ApoE knockdown) that was placed on a high-cholesterol diet, and compare with a control zebrafish that was fed a normal diet.
Visualize using a C1si confocal microscope: • endothelial cell morphology and the morphology of the vessel • accumulation of fluorescent lipid in the artery wall
FIG. 5. Ezetimibe reduces cholesterol absorption in zebrafish intestine (A) and prevents vascular damage (B). Fli:EGFP zebrafish larvae were feeding for 10 days on high fat diet with a fluorescent (red) cholesterol ester, with or without the addition of ezetimibe in the tank water. Ezetimibe, or (3R,4S)-1-(4-fluorophenyl)-3-((3S)-3-(4-fluorophenyl)-3-hydroxypropyl)-4-(4-hydroxyphenyl)-2-azetidinone, is an FDA-approved medicine (marketed as ZETIA™), which inhibits the absorption of cholesterol by the small intestine. […] Remarkably, ezetimibe rescued blood vessels from high fat diet-induced damage.

## O=C1[C@H](CC[C@H](O)c2ccc(F)cc2)[C@@H](c2ccc(O)cc2)N1c1ccc(F)cc1 [Ezetimibe, (3R,4S)-1-(4-fluorophenyl)-3-((3S)-3-(4-fluorophenyl)-3-hydroxypropyl)-4-(4-hydroxyphenyl)-2-azetidinone]
FIG. 5(A)
  level of cholesterol accumulated in the digestive system (intensity of red fluorescence): considerably reduced a level of cholesterol accumulated in the digestive system
FIG. 5(B)
  pathological changes in the endothelial layer morphology inflicted by high fat diet (vascular damage): prevented pathological changes in the endothelial layer morphology

Reference: US9220243B2, “Models of atherosclerosis, hyperlipidemia, lipoprotein oxidation and blood vessel inflammation and methods for making and using them” (THE REGENTS OF THE UNIVERSITY OF CALIFORNIA, priority 2006, dated 2015)
